Source: the NIST ThermoML archive (doi:10.1021/je700270d)
± gives the expanded uncertainty stated by the source.

Key:
[1] = activity coefficient (dimensionless); of the first substance listed, at infinite dilution; xn = mol fraction of the nth substance listed; details: Liquid, x1 = 0
[2] = Liquid, Closed cell (Static) method

Structure (SMILES) | activity coefficient ([1]; 250.06 K, Chromatography) | activity coefficient ([1]; 270.12 K, Chromatography) | activity coefficient ([1]; 289.97 K, Chromatography) | activity coefficient ([1]; 309.98 K, Chromatography) | activity coefficient ([1]; 329.97 K, Chromatography) | further results
C=CC=C [1,3-butadiene] + C1CCOCC1 | 0.95 ± 0.03 | 0.97 ± 0.03 | 1.01 ± 0.03 | 1.05 ± 0.03 | 1.09 ± 0.03 | –
C=CCC [1-butene] + C1CCOCC1 | – | – | – | – | – | activity coefficient ([1]; 250.06 K, Gas Stripping Method): 1.39 ± 0.01; activity coefficient ([1]; 270.12 K, Gas Stripping Method): 1.39 ± 0.01; activity coefficient ([1]; 289.97 K, Gas Stripping Method): 1.38 ± 0.01; activity coefficient ([1]; 309.98 K, Gas Stripping Method): 1.38 ± 0.01; activity coefficient ([1]; 329.97 K, Gas Stripping Method): 1.38 ± 0.01
CC(C)C [2-methylpropane] + C1CCOCC1 | 2.14 ± 0.1 | 2.04 ± 0.09 | 1.94 ± 0.09 | 1.88 ± 0.08 | 1.82 ± 0.08 | –
C/C=C/C [(E)-2-butene] + C1CCOCC1 | 1.43 ± 0.05 | 1.41 ± 0.05 | 1.4 ± 0.05 | 1.4 ± 0.05 | 1.4 ± 0.05 | –
C/C=C\C [(Z)-2-butene] + C1CCOCC1 | – | – | – | 1.31 ± 0.05 | – | activity coefficient ([1]; 250 K, Chromatography): 1.36 ± 0.05; activity coefficient ([1]; 270.07 K, Chromatography): 1.33 ± 0.05; activity coefficient ([1]; 289.98 K, Chromatography): 1.32 ± 0.05; activity coefficient ([1]; 330 K, Chromatography): 1.32 ± 0.05
CCCCCC [hexane] + C1CCOCC1 | – | – | – | 1.67 ± 0.07 | – | activity coefficient ([1]; 290 K, Chromatography): 1.76 ± 0.07; activity coefficient ([1]; 299.89 K, Chromatography): 1.71 ± 0.07; activity coefficient ([1]; 319.99 K, Chromatography): 1.65 ± 0.07; activity coefficient ([1]; 330.02 K, Chromatography): 1.61 ± 0.06
CCC [propane] + C1CCOCC1 | 2.08 ± 0.09 | 1.98 ± 0.09 | 1.9 ± 0.08 | 1.84 ± 0.08 | 1.79 ± 0.08 | –
C=CC [propene] + C1CCOCC1 | 1.42 ± 0.05 | 1.42 ± 0.05 | 1.43 ± 0.05 | 1.44 ± 0.05 | 1.44 ± 0.05 | –
C1CCOCC1 [tetrahydropyran] | – | – | – | – | – | vapor or sublimation pressure ([2]; 257.96 K): 0.98 ± 0.01 kPa; vapor or sublimation pressure ([2]; 260.07 K): 1.13 ± 0.01 kPa; vapor or sublimation pressure ([2]; 270.28 K): 2.16 ± 0.02 kPa; vapor or sublimation pressure ([2]; 279.82 K): 3.7 ± 0.02 kPa; vapor or sublimation pressure ([2]; 289.94 K): 6.28 ± 0.02 kPa; vapor or sublimation pressure ([2]; 290 K): 6.3 ± 0.02 kPa; vapor or sublimation pressure ([2]; 300.01 K): 10.23 ± 0.04 kPa; vapor or sublimation pressure ([2]; 332.98 K): 40 ± 0.1 kPa; vapor or sublimation pressure ([2]; 341.09 K): 53.33 ± 0.12 kPa; vapor or sublimation pressure ([2]; 347.72 K): 66.66 ± 0.15 kPa; vapor or sublimation pressure ([2]; 353.38 K): 79.99 ± 0.18 kPa; vapor or sublimation pressure ([2]; 358.37 K): 93.33 ± 0.21 kPa; vapor or sublimation pressure ([2]; 360.22 K): 98.66 ± 0.22 kPa

Continued, in another order:

activity coefficient ([1]; 250.06 K, Chromatography) | activity coefficient ([1]; 270.12 K, Chromatography) | activity coefficient ([1]; 289.97 K, Chromatography) | activity coefficient ([1]; 309.98 K, Chromatography) | activity coefficient ([1]; 329.97 K, Chromatography) | Structure (SMILES) | further results
1.57 ± 0.06 | 1.64 ± 0.07 | 1.67 ± 0.07 | 1.69 ± 0.07 | 1.66 ± 0.07 | CC(F)F [1,1-difluoroethane] + C1CCOCC1 | –
1.39 ± 0.05 | 1.39 ± 0.05 | 1.38 ± 0.05 | 1.38 ± 0.05 | 1.37 ± 0.05 | C=C(C)C [2-methylpropene] + C1CCOCC1 | –
2.04 ± 0.09 | 1.94 ± 0.09 | 1.85 ± 0.08 | 1.78 ± 0.08 | 1.72 ± 0.07 | CCCC [butane] + C1CCOCC1 | –
– | – | – | 0.94 ± 0.03 | – | CCCl [chloroethane] + C1CCOCC1 | activity coefficient ([1]; 250 K, Chromatography): 0.9 ± 0.03; activity coefficient ([1]; 270.07 K, Chromatography): 0.89 ± 0.03; activity coefficient ([1]; 289.98 K, Chromatography): 0.89 ± 0.03; activity coefficient ([1]; 330 K, Chromatography): 0.98 ± 0.03
– | – | – | 1.26 ± 0.04 | – | COC [dimethyl ether] + C1CCOCC1 | activity coefficient ([1]; 250 K, Chromatography): 1.29 ± 0.04; activity coefficient ([1]; 270.07 K, Chromatography): 1.26 ± 0.04; activity coefficient ([1]; 289.98 K, Chromatography): 1.26 ± 0.04; activity coefficient ([1]; 330 K, Chromatography): 1.26 ± 0.04
